According to a melting point compilation (Tetko et al.; mined from patent text by program, amines drawn as free bases though some values may be those of a salt):

SMILES	melting point [°C]
Cc1ccc(OCc2nc3nccnc3c(=O)[nH]2)cc1	232 to 233
NOCC(O)CN1CCOCC1 (stereo not drawn)	83 to 85
COc1cc(CCC(=O)C2=C(Cl)CCC2)cc(OS(=O)(=O)c2ccc(C)cc2)c1OC	73
COc1nc(N)c(Cl)cc1C(=O)CCC1CCN(CC(C)C)CC1	128
CCCCNC(=O)n1c(=NC(F)(F)F)oc2ccc([N+](=O)[O-])cc21	121 to 122
Cc1cc(C)cc(C(=O)c2c(C(C)C)c(=O)[nH]c(=O)n2CC2=CC(CO)C(CO)C2)c1 (stereo not drawn)	81 to 82
O=S(=O)(c1ccccc1)c1nccc2c1CCCC2	109 to 112
CC(=O)Nc1cccc2c1CCN(C(C)=O)C2	154 to 156
CC[C@@H](C)[C@H](N)C(=O)N1CC(F)(F)C(F)(F)C1	> 250
CCn1cc(C(=O)O)c(=O)c2cc(F)c(N3CCSCC3)nc21	241 to 243
O=C1NCC(Cc2ccc(Oc3ccccc3)cc2)O1 (stereo not drawn)	118 to 119
CC(C)OC(=O)c1ccc(NC(=O)N2CC(CCCC#N)C(c3ccc(Cl)cc3)=N2)cc1 (stereo not drawn)	109 to 113
COc1cc(OC)c(C23CC4CC(CC(C4)C2)C3)cc1C(=O)Oc1ccc(C(=O)O)cc1	236 to 238
CC(=O)Nc1nc(CCc2ccc(CN3CCNCC3)cc2)cs1	164 to 166
CC(C)c1ccccc1N1C(=O)CS/C1=N\C(=O)Nc1ccc(-c2nnc(-c3ccc(OC(F)(F)C(F)(F)F)cc3)o2)cc1	244 to 247
C=C1N(c2ccc(Cl)cc2)C(=O)OC12CCN(C(=O)N1CCN(CCO)CC1)CC2	185 to 186
CC(C)NCC(O)COc1ccc(NC(=O)N(C)C)cc1Cl (stereo not drawn)	130
Cc1nc2c3c(ccc2n1C)C(=O)CC(c1ccccc1)O3 (stereo not drawn)	201 to 202
CCOC(=O)/C=C/C=Cc1ccc(OCCc2nc(-c3ccccc3)oc2C)cc1	102 to 103
N#Cc1ccccc1NC1=CC(=O)CCC1	206
CCC1=NN=C(c2ccc(OC)c(OC)c2)c2cc(OC)c(OC)cc2C1C (stereo not drawn)	157 to 158
CCOCc1nc2c(N)nc3cc(OCc4ccccc4)ccc3c2n1CCCCN1CCCS1(=O)=O	225 to 227
COc1ccc(C(CC2=NN(C)C(=O)C2)c2ccccc2)cc1OC1CCCC1 (stereo not drawn)	105 to 108
CN(SN1CCOCC1)C(=O)ON=C1SCC(=O)NC1(C)C	180 to 182

SMILES	melting point [°C]
CC(C)N(C(=O)CC(c1ccccc1)c1cc(Br)ccc1OCc1ccccc1)C(C)C (stereo not drawn)	102
COC(=O)NC1CCc2ccc(Cl)cc2C1 (stereo not drawn)	99 to 101
COc1cc(-c2cc(C(F)(F)F)nn2-c2ccc(S(C)(=O)=O)cc2)ccc1-c1cocn1	171 to 173
O=[PH](c1ccc(N2CCCC2)cc1)c1ccc(N2CCCC2)cc1	199
OCCOCC(O)c1ccc(OCc2ccccc2)cc1 (stereo not drawn)	116 to 117
O=C(Nc1ccccc1C(=O)O)c1nnc(S)o1	236 to 237
N#Cc1cccc(C2=Nc3ccc(C#Cc4ccc(OC(F)(F)F)cc4)cc3NC(=O)C2)c1	239 to 241
N#CSC1=Nc2ccccc2Sc2nccn21	111 to 113
C[C@@H]1OC(P(=O)(O)O)=CC[C@@]1(O)n1cnc2c(N)ncnc21	151
CCC1(CCCCN2CCc3sc(Cl)cc3C2)C(=O)Nc2ccccc21 (stereo not drawn)	117 to 119
Cc1c(C(=O)Cl)ccc2c1C(=O)N(C)S2(=O)=O	149 to 150
Cc1ccc(-n2c(=O)n(O)c(=O)c3cc(F)c(N4CCCC4)nc32)cc1	228 to 230
Cc1nc(N)c2ncn(CCOc3ccccc3)c2c1C	197 to 199
Cn1c([N+](=O)[O-])cnc1C1=NO[C@@H]2CCCCCC[C@@H]12 (relative stereo)	106 to 109
CC(=O)C1(COC(=O)Oc2ccccc2)CC2C=CC1C2 (stereo not drawn)	76 to 77
CC1(O)CC(=O)OC(CCc2ccccc2OCc2ccccc2)C1Br (stereo not drawn)	122 to 125
COC(=O)c1ccc(N2CCNC2=O)cc1	> 200
Cn1cc(Br)cc(N)c1=O	104 to 105
Cc1cc(CCCCCOc2c(C)cc(-c3noc(C)n3)cc2C)on1	45 to 46
O=[N+]([O-])c1cn2c(n1)OC(COc1ccc(N3CCN(NCc4ccc(-c5ccc(C(F)(F)F)cc5)cc4)CC3)cc1)CC2 (stereo not drawn)	294 to 295
CC(C)(C)OC(=O)N1CCN(C(=O)SCc2ccc(OCc3ccc(F)cc3)cc2)CC1	123 to 124
O=S1(=O)NCN(C2CC2)c2cc(F)c(Cl)cc21	155 to 158
CCOC(=O)CC(=O)C=CNc1cc(C)no1	93 to 95
CCc1c(-c2ccccc2)nn(C)c1-c1ccccc1	80 to 81

SMILES	melting point [°C]
CC(=O)NC(=O)C(Cl)Cc1ccc(OCC(C)(C)c2ccccc2)cc1 (stereo not drawn)	125 to 126
CCOC(=O)/C=C/c1ccc(N2CCC3(CC2)OCCO3)cc1	115 to 116
CSC(=S)C1(c2ccccn2)OCCCS1 (stereo not drawn)	116
COc1cc2cc(C(=O)N3CC(CCl)c4c3cc(NCCNC(=O)OC(C)(C)C)c3ccccc43)[nH]c2c(OC)c1OC (stereo not drawn)	110 to 115
CCOC(=O)C(=CNc1cnc2ccccc2n1)c1ccccc1	193 to 194
CC(=O)N1CCN(c2ccc(F)cc2O)CC1	183 to 185
CC(C)(C)c1ccc(S(=O)(=O)Nc2ncnc(Cl)c2Oc2ccccc2)cc1	143 to 144
Cc1ccc(Oc2ccc(C#CC(C)N(O)C(N)=O)o2)cn1 (stereo not drawn)	149
Cc1nc(C#CCCn2nc3ccccc3n2)sc1C	96 to 98
CN1CCC(OC2c3cccc(OCc4ccccc4)c3CCn3cc(-c4ccccc4)nc32)CC1 (stereo not drawn)	68
CC(=O)SCCC(=O)N1NC(=O)CC1C(=O)O (stereo not drawn)	205 to 207
BrCCCCCCCc1ccc(OCc2ccccc2)cc1	32 to 34
CC(C)(C)OC(=O)CON=C(C(=O)O)c1ccsc1	103 to 104
CCCNC1Cc2ccc(C3=NNC(=O)CC3)cc2C1 (stereo not drawn)	137 to 138
CCCCCCCCCCCCCCCCCCOCCO	39 to 41
COc1ccc(Nc2nc(NC3CCNCC3)nc(N(C)N3CCCCCC3)n2)cc1Cl	81
Oc1ccccc1-c1cc(-c2ccc(F)c(F)c2)cc(-c2ccc3ccccc3c2)n1	165 to 167
COc1ccc(/C=C(\C#N)c2ccccc2[N+](=O)[O-])cc1OC1CCCC1	95.5 to 97
C=C1C[C@@H]2C(=O)OC(=O)[C@@H]2C1	50 to 51
CC(C)(C)OC(=O)NC1CC1F (stereo not drawn)	58 to 60
CN1C(=O)C2(COc3cc4c(cc32)OCCO4)c2c(OCc3ncccc3C(F)(F)F)cccc21 (stereo not drawn)	157 to 159
CC(C)=CCCC(C)CCOCC(=O)c1cc(C(C)C)c(O)c(C(C)C)c1 (stereo not drawn)	37 to 39
COc1cc(C=CC(CCc2ccco2)=NO)ccc1O	110 to 120

Next, values leading:

melting point [°C]	SMILES
67 to 68	O=C(Cc1ccccc1Nc1c(Cl)cccc1Cl)OCCc1ccccn1
54 to 56	CCOC(=O)C=C(c1ccc(Cl)cc1)c1ccc(Cl)cc1
168 to 170	CCOC(=O)c1cc2c(OC)cccc2[nH]1
216 to 220	O=C(NC(=O)c1c(F)cccc1F)Nc1cc(Cl)c(S(=O)C(F)(F)C(F)F)cc1Cl (stereo not drawn)
125 to 126	COc1ccc(C(=O)c2ccc(Br)cc2)c(F)c1
185 to 188	O=C(O)CNS(=O)(=O)c1cc2ccc(Cl)cc2cc1Cl
197 to 199	O=C(NNc1ccc(NC(=S)NCc2ccccc2)cc1)c1ccc(Cl)cc1
168 to 172	CC(C)(C)c1ccc(S(=O)(=O)N2c3ccc(F)cc3CC2C(=O)NCCc2ccccc2)cc1 (stereo not drawn)
162 to 163	ClCc1cn2cc(Cl)cc(Cl)c2n1
189 to 191	Cc1ccc(S(=O)(=O)N(c2ccc(Cl)cc2C(N)=S)C(C)C)cc1
191	O=C(NC(=O)c1ccccc1Cl)Nc1cc(C(F)(F)F)c(Br)cc1Br
76 to 77	Cc1cc(C)c2c(c1)OC(=O)C2c1ccc(C(C)C)cc1 (stereo not drawn)
150 to 151	Cc1c(CC(=O)O)c2cc(OCc3csc(-c4ccccc4)n3)ccc2n1Cc1ccc(Cl)cc1
138 to 142	CC1c2cccc3c2N(CC3)c2ccccc2N1C(=O)CCN(C)C (stereo not drawn)
172 to 174	ClCc1ccc2c(c1)Cc1cccnc1O2
79 to 81	Nc1cc(Cl)cc(Cl)c1C(=O)NCc1cccc(F)c1

melting point [°C]	SMILES
170	NCCCn1cc(-c2cc3nccnc3[nH]2)c2ccccc21
75 to 77	Cc1ccc2c(Cl)ccnc2c1N
185 to 187	COC(=O)c1[nH]c(-c2ccccc2)c(-c2ccccc2)c1C(=O)OC
84 to 86	O=C(CNC(=O)c1ccc(F)c([N+](=O)[O-])c1)OCc1ccccc1
205 to 207	NC(C(=O)CCC(=O)O)c1ccc(Nc2n[nH]c3ncnc(Nc4cccc(Cl)c4)c23)cc1 (stereo not drawn)
119	COC(=O)CCCc1cc2nc(Cl)ccc2n1S(=O)(=O)c1ccc(F)cc1
182 to 183	CCOC(=O)c1nc2c(Cl)nc3cc(C(F)(F)F)ccc3n2c1C
295 to 297	CN1CCC(c2c(O)cc(O)c3c(=O)cc(-c4ccccc4Cl)oc23)C1C(=O)O (stereo not drawn)
155 to 156	CC(=O)NCc1ccc(CN2CCN(c3ccc(Cl)cn3)CC2)cc1
98 to 99	Cc1oc(-c2ccccc2)nc1COc1cncc(CCl)c1
38 to 39	O=C(CCl)COc1cccc(C(F)(F)F)c1
181 to 182	CC(C)c1nc(COCc2ccccc2)n(CC(C)(C)O)c1Sc1cc(Cl)cc(Cl)c1
80	COc1ccc(C(=O)c2nccs2)cc1OCc1ccc2ccccc2c1
120	CCn1cccc(C2c3cc(C(=O)OC)ccc3OC(C)(C)C2O)c1=O (stereo not drawn)
162 to 164	CCOC(=O)C1=C(C)NC(c2nccn2Cc2ccccc2)=NC1c1ccc(F)cc1 (stereo not drawn)
123 to 125	CC1(C)Nc2cc(F)c(F)cc2-n2cccc21
